Laboratory results published in US8952008B2, “Chemical compounds” (Pfizer Limited, priority 2012, dated 2015).
Like-named read-outs stand apart in the source and are kept apart here.

Experiments:
[1] = molecular target: human recombinant GABA A receptor containing the alpha2, beta2, and gamma3 subunits (Homo sapiens, UniProt P47869+Q99928); experiment: Radioligand competition binding assay with [3H]Ro-15-1788 (Flumazenil);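 note: membranes from HEK cells expressing the receptor, incubated with radioligand to equilibrium, filter-bound radioactivity counted, Ki reported as geometric mean of replicate runs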
Method: Membranes were prepared from HEK cells expressing hGABA A alpha2beta2-gamma3 receptor, and validated to ascertain protein concentration, receptor expression and to determine the Kd of the flumazenil as well as the Ki of a standard set of compounds before being used to test new compounds.
100 ul of radioligand and 100 ul of membrane in 50 mM Tris-HCl and 0.05% F127 with 1 ul of test compound was incubated for 2 hours to allow the reaction to achieve equilibrium, and then harvested onto filter plates, dried and counted on a TopCount NXT. The data was analysed, and the Ki values were presented as the geometric mean of at least two replicates.

[2] = molecular target: GABRA2-GABRB2-GABRG2 chloride currents in HEK cells (Homo sapiens (Human), UniProt P18507+P47869); experiment: QPatch electrophysiological recording, % enhancement of GABA current (α2 PAM); format: cell-based; conditions: approximately EC10 GABA, −60 mV, whole-cell patch clamp
Method: Human Embryonic Kidney (HEK) cells were transfected with a GABRA2-GABRB2-GABRG2 construct using standard techniques.
For QPatch electrophysiology testing, cells were harvested from flasks by enzymatic dissociation and resuspended in serum-free medium. Cells were typically used for electrophysiological experiments within 24 to 72 hours after splitting.
(§1) Cell suspension containing HEK cells expressing GABRA2-GABRB2-GABRG2 was placed on the QPatch instrument in serum-free medium into the instrument's cell stirrer. The instrument washed the cells once using extracellular buffer and then dispensed them into the QPlate HT measurement plate at a concentration of 3-4-e6/ml. […] All recordings were made at room temperature (22-24° C.).
(§2) Current records were acquired at 1 KHz and filtered at 0.3 KHz using the Bessel filter. Series resistance compensation was set to 80% in the QPatch software.
(§3) All compounds were dissolved in dimethyl sulfoxide to make 30 mM or 10 mM stock solutions, which were then diluted to 1000 times the desired final concentration in dimethyl sulfoxide. These were diluted into extracellular solution to attain the final concentrations desired. […] This concentration of dimethyl sulfoxide was present in all samples.
(§4) Currents were recorded at −60 mV, using an approximately EC10 concentration of gamma-aminobutyric acid (GABA). This dose of gamma-aminobutyric acid was applied for 6 seconds and washed off using extracellular buffer as an unrecorded application using the pipetting system of the QPatch instrument. The same dose of gamma-aminobutyric acid was then applied for 9 seconds, then the test compound was co-applied with this dose of gamma-aminobutyric acid for 15 seconds, and washed off using the extracellular solution using the pipetting system of the QPatch instrument.
(§5) Compound effect (% enhancement of gamma-aminobutyric acid current) was calculated using the following formula: [((peak modulator current amplitude-leak)−(GABA current amplitude-leak))/(GABA current amplitude-leak)]*100, where ‘leak’ is leak current at −60 mV, ‘peak modulator current amplitude’ is the current elicited by co-application of gamma-aminobutyric acid and test compound, and ‘GABA current amplitude’ is the current elicited by application of gamma-aminobutyric acid alone.

[3] = molecular target: GABRA1-GABRB3-GABRG2 chloride currents in HEK cells (Homo sapiens (Human), UniProt P14867+P18507); experiment: QPatch electrophysiological recording, % enhancement of GABA current (α1 PAM); format: cell-based; conditions: approximately EC10 GABA, −60 mV, whole-cell patch clamp
Method: as §1, §2, §3, §4, §5
The ability of the compounds of the formula (I) to modulate the GABA channels expressing the al subunit (or GABRA1) can also be measured using an assay analogous to that described above but replacing the GABRA2-GABRB2-GABRG2 gene construct with the GABRA1-GABRB3-GABRG2 gene construct. All other conditions remain the same including the same cell line and conditions for cell growth.

GABRA1-GABRB3-GABRG2 chloride currents in HEK cells, sequence (P14867 28-456): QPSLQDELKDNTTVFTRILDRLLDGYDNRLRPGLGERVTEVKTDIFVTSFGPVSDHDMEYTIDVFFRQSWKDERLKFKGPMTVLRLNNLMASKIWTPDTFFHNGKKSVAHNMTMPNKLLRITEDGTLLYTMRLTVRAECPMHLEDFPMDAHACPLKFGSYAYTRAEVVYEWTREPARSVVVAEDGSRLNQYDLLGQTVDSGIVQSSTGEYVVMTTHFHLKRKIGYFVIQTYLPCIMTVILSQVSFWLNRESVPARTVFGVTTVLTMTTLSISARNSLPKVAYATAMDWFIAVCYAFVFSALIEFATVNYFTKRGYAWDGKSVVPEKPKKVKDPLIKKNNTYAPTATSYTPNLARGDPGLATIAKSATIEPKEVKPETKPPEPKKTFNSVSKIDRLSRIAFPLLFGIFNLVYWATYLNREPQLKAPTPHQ
GABRA1-GABRB3-GABRG2 chloride currents in HEK cells, sequence (P28472 26-473 partner): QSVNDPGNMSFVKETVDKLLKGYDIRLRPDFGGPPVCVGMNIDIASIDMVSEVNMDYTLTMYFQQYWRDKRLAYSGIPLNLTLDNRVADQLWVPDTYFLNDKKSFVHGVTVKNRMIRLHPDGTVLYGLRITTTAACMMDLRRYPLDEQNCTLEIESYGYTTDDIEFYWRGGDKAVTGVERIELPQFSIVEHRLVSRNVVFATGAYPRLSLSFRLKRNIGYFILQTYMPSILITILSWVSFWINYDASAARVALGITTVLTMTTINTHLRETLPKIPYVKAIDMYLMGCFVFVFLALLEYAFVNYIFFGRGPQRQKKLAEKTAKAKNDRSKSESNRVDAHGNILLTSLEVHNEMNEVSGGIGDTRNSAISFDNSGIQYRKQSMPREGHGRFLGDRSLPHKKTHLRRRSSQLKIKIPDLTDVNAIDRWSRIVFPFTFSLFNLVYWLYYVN
GABRA1-GABRB3-GABRG2 chloride currents in HEK cells, sequence (P18507 40-475): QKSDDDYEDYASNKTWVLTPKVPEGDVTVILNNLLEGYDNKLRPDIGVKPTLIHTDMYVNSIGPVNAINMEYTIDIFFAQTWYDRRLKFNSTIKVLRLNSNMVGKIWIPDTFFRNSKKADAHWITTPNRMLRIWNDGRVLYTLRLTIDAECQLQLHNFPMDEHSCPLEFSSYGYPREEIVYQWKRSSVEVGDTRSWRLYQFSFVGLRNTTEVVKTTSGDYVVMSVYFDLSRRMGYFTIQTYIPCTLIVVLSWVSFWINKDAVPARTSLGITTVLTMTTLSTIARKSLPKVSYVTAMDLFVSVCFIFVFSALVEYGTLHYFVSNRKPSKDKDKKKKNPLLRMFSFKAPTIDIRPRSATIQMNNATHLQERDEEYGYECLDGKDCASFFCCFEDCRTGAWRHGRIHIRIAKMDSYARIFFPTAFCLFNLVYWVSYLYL
GABRA2-GABRB2-GABRG2 chloride currents in HEK cells, sequence (P47869 29-451): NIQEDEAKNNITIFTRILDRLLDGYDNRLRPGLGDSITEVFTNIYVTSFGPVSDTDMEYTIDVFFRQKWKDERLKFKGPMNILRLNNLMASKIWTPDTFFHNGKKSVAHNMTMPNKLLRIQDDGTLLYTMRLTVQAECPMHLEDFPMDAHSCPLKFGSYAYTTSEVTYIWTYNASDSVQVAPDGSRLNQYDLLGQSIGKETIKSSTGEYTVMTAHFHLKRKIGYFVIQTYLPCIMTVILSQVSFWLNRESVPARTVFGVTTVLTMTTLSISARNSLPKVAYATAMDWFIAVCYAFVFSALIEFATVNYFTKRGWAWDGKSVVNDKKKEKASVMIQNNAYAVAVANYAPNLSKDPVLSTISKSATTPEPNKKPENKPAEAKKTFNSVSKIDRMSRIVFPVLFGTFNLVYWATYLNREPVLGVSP
GABRA2-GABRB2-GABRG2 chloride currents in HEK cells, sequence (P47870 26-512 partner): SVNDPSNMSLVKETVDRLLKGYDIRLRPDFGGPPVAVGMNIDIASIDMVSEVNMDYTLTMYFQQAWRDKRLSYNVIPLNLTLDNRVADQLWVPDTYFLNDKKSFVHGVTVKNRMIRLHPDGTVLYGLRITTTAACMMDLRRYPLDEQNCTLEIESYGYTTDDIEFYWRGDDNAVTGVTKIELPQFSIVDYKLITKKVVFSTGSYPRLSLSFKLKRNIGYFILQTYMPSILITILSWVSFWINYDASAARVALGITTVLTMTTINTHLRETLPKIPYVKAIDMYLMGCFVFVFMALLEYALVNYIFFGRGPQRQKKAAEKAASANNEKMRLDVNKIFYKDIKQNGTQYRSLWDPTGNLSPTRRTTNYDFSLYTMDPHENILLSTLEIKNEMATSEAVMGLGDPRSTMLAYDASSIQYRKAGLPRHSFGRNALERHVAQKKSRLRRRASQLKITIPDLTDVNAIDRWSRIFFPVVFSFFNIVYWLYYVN
GABRA2-GABRB2-GABRG2 chloride currents in HEK cells, sequence (P18507 40-475): as the sequence (P18507 40-475) above

Compound	α2 PAM (%) [2]	Ki [1]	other results
7-Ethyl-4-[4-fluoro-3-(2-methyl-1,1-dioxido-2,3-di hydro-1,2-benzisothiazol-5-yl)phenyl]-7H-imidazo[4,5-d]pyridazine [Example 50]			Ki ([1]; read-out: GABA-α2 Ki, competition with [3H]Ro-15-1788, HEK cell membranes, geometric mean of at least two replicates): 69.5 nM
CCn1cnc2c(-c3ccc(F)c(-c4ccc(S(N)(=O)=O)cc4)c3)cnnc21 [Example 3, 5′-(7-Ethyl-7H-imidazo[4,5-c]pyridazin-4-yl)-2′-fluorobiphenyl-4-sulfonamide]	27.6%		α1 PAM (%) [3]: −51.1%
CCn1cnc2c(-c3ccc(F)c(-c4ccc(S(=O)(=O)CC)cc4OC)c3)cnnc21 [Example 4, 7-Ethyl-4-[4′-(ethylsulfonyl)-6-fluoro-2′-methoxybiphenyl-3-yl]-7H-imidazo[4,5-c]pyridazine]			α1 PAM (%) [3]: 18.1%
CCn1cnc2c(-c3ccc(F)c(-c4ccc(S(=O)(=O)C(C)C)cc4C#N)c3)cnnc21 [Example 5, 5′-(7-Ethyl-7H-imidazo[4,5-c]pyridazin-4-yl)-2′-fluoro-4-(isopropylsulfonyl)-[1,1′-biphenyl]-2-carbonitrile]		108 nM	
CCn1cnc2c(-c3ccc(F)c(-c4ccc(S(=O)(=O)C5CCC5)cc4OC)c3)cnnc21 [Example 6, 4-(4′-(Cyclobutylsulfonyl)-6-fluoro-2′-methoxy-[1,1-biphenyl]-3-yl)-7-ethyl-7H-imidazo[4,5-c]pyridazine]		9.51 nM	
CCn1cnc2c(-c3ccc(F)c(-c4ccc(S(=O)(=O)NC)cc4)c3)cnnc21 [Example 8, 5′-(7-Ethyl-7H-imidazo[4,5-c]pyridazin-4-yl)-2′-fluoro-N-methylbiphenyl-4-sulfonamide]	19.4%		α1 PAM (%) [3]: −55.1%
CCn1cnc2c(-c3ccc(F)c(-c4ccc(S(C)(=O)=O)cc4)c3)cnnc21 [Example 9, 7-Ethyl-4-[6-fluoro-4′-(methylsulfonyl)biphenyl-3-yl]-7H-imidazo[4,5-c]pyridazine]	38.9%		
CCn1cnc2c(-c3ccc(F)c(-c4ccc(S(C)(=O)=O)cc4OC)c3)cnnc21 [Example 12, 7-Ethyl-4-(6-fluoro-2′-methoxy-4′-(methylsulfonyl)-[1,1′-biphenyl]-3-yl)-7H-imidazo[4,5-c]pyridazine]	39.1%		α1 PAM (%) [3]: 3.66%
CCn1cnc2c(-c3ccc(F)c(-c4ccc(S(=O)(=O)CC)cc4C(F)F)c3)cnnc21 [Example 14, 4-(2′-(Difluoromethyl)-4′-(ethylsulfonyl)-6-fluoro-[1,1′-biphenyl]-3-yl)-7-ethyl-7H-imidazo[4,5-c]pyridazine]	58.0%		α1 PAM (%) [3]: 13.3%
CCn1cnc2c(-c3ccc(F)c(-c4ccc(S(=O)(=O)CC)cc4F)c3)cnnc21 [Example 15, 4-(4′-Ethanesulfonyl-6,2′-difluoro-biphenyl-3-yl)-7-ethyl-7H-imidazo[4,5-c]pyridazine]	39.4%		
CCn1cnc2c(-c3cccc(-c4ccc(S(C)(=O)=O)cc4)c3)cnnc21 [Example 16, 7-Ethyl-4-[4′-(methylsulfonyl)biphenyl-3-yl]-7H-imidazo[4,5-c]pyridazine]		56 nM	
CCn1cnc2c(-c3cccc(-c4ccc5c(c4)CCS5(=O)=O)c3)cnnc21 [Example 17, 4-[3-(1,1-dioxido-2,3-dihydro-1-benzothiophen-5-yl)phenyl]-7-ethyl-7H-imidazo[4,5-c]pyridazine]		102 nM	
CC(C)S(=O)(=O)c1ccc(-c2cc(-c3cnnc4c3ncn4C3CC3)ccc2F)c(C#N)c1 [Example 18]		296 nM	
NS(=O)(=O)c1ccc(-c2cc(-c3cnnc4c3ncn4C3CC3)ccc2F)cc1 [Example 20, 5′-(7-Cyclopropyl-7H-imidazo[4,5-c]pyridazin-4-yl)-2′-fluoro-[1,1′-biphenyl]-4-sulfonamide]	36.3%	19 nM	
CCS(=O)(=O)c1ccc(-c2cc(-c3cnnc4c3ncn4C3CC3)ccc2F)c(F)c1 [Example 22, 7-Cyclopropyl-4-(4′-(ethylsulfonyl)-2′,6-difluoro-[1,1′-biphenyl]-3-yl)-7H-imidazo[4,5-c]pyridazine]		67.8 nM	
COc1cc(S(=O)(=O)C(C)C)ccc1-c1cc(-c2cnnc3c2ncn3C2CC2)ccc1F [Example 23, 7-Cyclopropyl-4-(6-fluoro-4′-(isopropylsulfonyl)-2′-methoxy-[1,1′-biphenyl]-3-yl)-7H-imidazo[4,5-c]pyridazine]		40.5 nM	
CCS(=O)(=O)c1ccc(-c2cc(-c3cnnc4c3ncn4C3CCC3)ccc2F)c(F)c1 [Example 26, 7-Cyclobutyl-4-(4′-(ethylsulfonyl)-2′,6-difluoro-[1,1′-biphenyl]-3-yl)-7H-imidazo[4,5-c]pyridazine]		147 nM	
CCS(=O)(=O)c1ccc(-c2cc(-c3cnnc4c3ncn4C3(C)CC3)ccc2F)cc1 [Example 27, 4-[4′-(Ethylsulfonyl)-6-fluorobiphenyl-3-yl]-7-(1-methylcyclopropyl)-7H-imidazo[4,5-c]pyridazine]		34.8 nM	
CCS(=O)(=O)c1ccc(-c2cc(-c3cnnc4c3ncn4C3CCC3)ccc2F)cc1 [Example 28, 7-Cyclobutyl-4-[4′-(ethylsulfonyl)-6-fluorobiphenyl-3-yl]-7H-imidazol[4,5-c]pyridazine]		74.3 nM	
CCCn1cnc2c(-c3ccc(F)c(-c4ccc(S(=O)(=O)CC)cc4)c3)cnnc21 [Example 30, 4-[4′-(Ethylsulfonyl)-6-fluorobiphenyl-3-yl]-7-propyl-7H-imidazo[4,5-d]pyridazine]		120 nM	
CC(C)n1cnc2c(-c3ccc(F)c(-c4ccc(S(=O)(=O)C(C)C)cc4C#N)c3)cnnc21 [Example 35, 2′-Fluoro-5′-(7-isopropyl-7H-imidazo[4,5-c]pyridazin-4-yl)-4-(isopropylsulfonyl)-[1,1′-biphenyl]-2-carbonitrile]		38.8 nM	
CC(C)n1cnc2c(-c3ccc(F)c(-c4ccc(S(=O)(=O)C(C)C)cc4F)c3)cnnc21 [Example 36, 4-(2′,6-Difluoro-4′-(isopropylsulfonyl)-[1,1′-biphenyl]-3-yl)-7-isopropyl-7H-imidazo[4,5-c]pyridazine]		87.4 nM	
CCS(=O)(=O)c1ccc(-c2cc(-c3cnnc4c3ncn4C(C)C)ccc2F)c(Cl)c1 [Example 39, 4-(2′-Chloro-4′-(ethylsulfonyl)-6-fluoro-[1,1′-biphenyl]-3-yl)-7-isopropyl-7H-imidazo[4,5-c]pyridazine]		14.4 nM	
CCS(=O)(=O)c1ccc(-c2cc(-c3cnnc4c3ncn4C(C)C)ccc2F)c(OC)c1 [Example 40, 4-(4′-(Ethylsulfonyl)-6-fluoro-2′-methoxy-[1,1′-biphenyl]-3-yl)-7-isopropyl-7H-imidazo[4,5-c]pyridazine]		14 nM	
CCS(=O)(=O)c1ccc(-c2cc(-c3cnnc4c3ncn4C3CCCC3)ccc2F)c(OC)c1 [Example 43, 7-Cyclopentyl-4-(4′-(ethylsulfonyl)-6-fluoro-2′-methoxy-[1,1′-biphenyl]-3-yl)-7H-imidazo[4,5-c]pyridazine]		118 nM	
CCn1cnc2c(-c3ccc(OC)c(-c4ccc(S(=O)(=O)CC)cc4F)c3)cnnc21 [Example 44, 7-Ethyl-4-(4′-(ethylsulfonyl)-2′-fluoro-6-methoxy-[1,1′-biphenyl]-3-yl)-7H-imidazo[4,5-c]pyridazine]		678 nM	
CCn1cnc2c(-c3ccc(Cl)c(-c4ccc(S(=O)(=O)CC)cc4OC)c3)cnnc21 [Example 45, 4-(6-Chloro-4′-(ethylsulfonyl)-2′-methoxy-[1,1′-biphenyl]-3-yl)-7-ethyl-7H-imidazo[4,5-c]pyridazine]	61.1%		
CCn1cnc2c(-c3ccc(OC)c(-c4ccc(S(=O)(=O)CC)cc4OC)c3)cnnc21 [Example 46, 7-Ethyl-4-(4′-(ethylsulfonyl)-2′,6-dimethoxy-[1,1′-biphenyl]-3-yl)-7H-imidazol[4,5-c]pyridazine]		1750 nM	
CCn1cnc2c(-c3ccc(C#N)c(-c4ccc(S(=O)(=O)CC)cc4OC)c3)cnnc21 [Example 47, 5-(7-Ethyl-7H-imidazo[4,5-c]pyridazin-4-yl)-4′-(ethylsulfonyl)-2′-methoxy-[1,1′-biphenyl]-2-carbonitrile]	68.7%		
CCn1cnc2c(-c3ccc(F)c(-c4ccc(S(=O)(=O)CC)cc4)c3)cnnc21 [Example 49, 7-Ethyl-4-[4′-(ethylsulfonyl)-6-fluorobiphenyl-3-yl]-7H-imidazo[4,5-d]pyridazine]	83.9%		
